Six molecules from US11780893B2, “Kv1.3 blockers” (Zealand Pharma A/S, priority 2019, dated 2023) can be followed below.

Bridge positions count the residues as written; N and C are the ends. Square brackets hold non-standard residues; d marks the D form. Peptide text beside a SMILES is read from it. Phe(4-NH2) = Nc1ccc(C[C@H](N)C(=O)O)cc1; Nle = CCCC[C@H](N)C(=O)O A value given as a limit tells only on which side of the number the result lay.

Experiment [1] concerns the target T1, human Kv1.3 voltage-gated K+ channel (Homo sapiens, UniProt P22001).
T1 construct: host or cells: CHO-DUKX
Kind of experiment: cell-based. As to conditions: inhibition of thallium flux, CHO-DUKX cells with human Kv1.3; read-out: IC50.

A further experiment concerns the target T2, Kv1.1 (Homo sapiens, UniProt Q09470).
T2 construct: expressed in transfected cells; host or cells: Chinese Hamster Ovary (CHO)
Kind of experiment: cell-based. To be noted: for IC50: CHO cells, whole-cell patch clamp, read-out: Potency IC50 (nM) Kv1.1; for Selectivity Kv1.1/Kv1.3: ratio IC50[Kv1.1]/IC50[Kv1.3]. On the technique in general: In patch-clamp work, channel activity is measured electrically.

The target of the next experiment is T3, Kv1.2 (Homo sapiens, UniProt P16389).
T3 construct: expressed in transfected cells; host or cells: Chinese Hamster Ovary (CHO)
As to the kind of experiment: cell-based. As to conditions: for IC50: CHO cells, whole-cell patch clamp, read-out: Potency IC50 (nM) Kv1.2.

Another experiment has as its target T4, Kv1.3 (Homo sapiens, UniProt P22001).
T4 construct: expressed in transfected cells; host or cells: Chinese Hamster Ovary (CHO)
Kind of experiment: cell-based. As to conditions: CHO cells, whole-cell patch clamp; read-out: Potency IC50 (nM) Kv1.3.

Another experiment addresses T5, Kv1.6 (Homo sapiens, UniProt P17658).
T5 construct: expressed in transfected cells; host or cells: Chinese Hamster Ovary (CHO)
As to the kind of experiment: cell-based. As to conditions: for IC50: CHO cells, whole-cell patch clamp, read-out: Potency IC50 (nM) Kv1.6; for Selectivity Kv1.6/Kv1.3: ratio IC50[Kv1.6]/IC50[Kv1.3].

The target in the next experiment is Rat whole blood (Rattus norvegicus, UniProt P15384).
Chain of Rat whole blood (P15384 whole entry): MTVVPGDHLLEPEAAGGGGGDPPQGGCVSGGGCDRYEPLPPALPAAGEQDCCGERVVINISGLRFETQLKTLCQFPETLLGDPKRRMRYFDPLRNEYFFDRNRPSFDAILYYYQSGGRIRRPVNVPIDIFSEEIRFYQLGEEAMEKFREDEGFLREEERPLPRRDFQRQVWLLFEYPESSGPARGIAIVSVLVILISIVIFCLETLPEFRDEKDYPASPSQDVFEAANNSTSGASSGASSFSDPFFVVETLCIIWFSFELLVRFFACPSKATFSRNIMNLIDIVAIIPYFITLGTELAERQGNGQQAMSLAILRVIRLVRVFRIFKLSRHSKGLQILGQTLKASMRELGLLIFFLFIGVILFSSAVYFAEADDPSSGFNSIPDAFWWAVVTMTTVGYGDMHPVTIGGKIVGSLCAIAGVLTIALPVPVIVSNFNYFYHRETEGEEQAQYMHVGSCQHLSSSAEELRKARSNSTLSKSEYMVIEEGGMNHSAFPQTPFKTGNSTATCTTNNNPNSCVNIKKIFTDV

T5 sequence (P17658 whole entry): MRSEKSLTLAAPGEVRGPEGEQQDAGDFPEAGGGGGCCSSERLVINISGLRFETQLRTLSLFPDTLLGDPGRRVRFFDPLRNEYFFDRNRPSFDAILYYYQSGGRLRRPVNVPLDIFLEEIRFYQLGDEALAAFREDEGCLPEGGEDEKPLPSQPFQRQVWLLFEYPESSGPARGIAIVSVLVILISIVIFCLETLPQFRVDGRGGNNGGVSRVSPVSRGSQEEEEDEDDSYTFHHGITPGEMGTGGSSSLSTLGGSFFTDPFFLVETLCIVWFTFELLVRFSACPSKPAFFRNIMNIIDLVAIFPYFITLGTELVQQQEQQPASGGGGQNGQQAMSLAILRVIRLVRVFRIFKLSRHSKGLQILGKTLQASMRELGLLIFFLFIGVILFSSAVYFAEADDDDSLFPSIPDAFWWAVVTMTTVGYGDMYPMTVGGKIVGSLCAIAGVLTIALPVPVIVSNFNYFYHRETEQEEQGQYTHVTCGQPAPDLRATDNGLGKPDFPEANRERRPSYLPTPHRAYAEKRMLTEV
T4 sequence (P22001 whole entry): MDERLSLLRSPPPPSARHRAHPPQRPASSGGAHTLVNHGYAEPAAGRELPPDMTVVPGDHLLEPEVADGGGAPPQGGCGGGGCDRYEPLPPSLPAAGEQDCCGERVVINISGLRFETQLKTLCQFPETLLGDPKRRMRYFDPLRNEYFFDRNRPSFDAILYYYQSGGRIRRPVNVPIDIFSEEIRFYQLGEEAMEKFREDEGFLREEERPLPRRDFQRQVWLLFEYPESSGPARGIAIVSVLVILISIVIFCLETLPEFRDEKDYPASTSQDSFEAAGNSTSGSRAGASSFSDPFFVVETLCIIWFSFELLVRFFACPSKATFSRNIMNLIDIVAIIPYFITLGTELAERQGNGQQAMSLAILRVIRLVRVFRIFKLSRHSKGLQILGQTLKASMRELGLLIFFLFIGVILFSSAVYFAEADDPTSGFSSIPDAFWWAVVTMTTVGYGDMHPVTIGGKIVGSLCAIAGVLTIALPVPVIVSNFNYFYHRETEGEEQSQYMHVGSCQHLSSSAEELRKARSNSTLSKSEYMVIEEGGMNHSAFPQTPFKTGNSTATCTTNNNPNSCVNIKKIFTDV
T1 sequence (P22001 whole entry): as above
T2 sequence (Q09470 whole entry): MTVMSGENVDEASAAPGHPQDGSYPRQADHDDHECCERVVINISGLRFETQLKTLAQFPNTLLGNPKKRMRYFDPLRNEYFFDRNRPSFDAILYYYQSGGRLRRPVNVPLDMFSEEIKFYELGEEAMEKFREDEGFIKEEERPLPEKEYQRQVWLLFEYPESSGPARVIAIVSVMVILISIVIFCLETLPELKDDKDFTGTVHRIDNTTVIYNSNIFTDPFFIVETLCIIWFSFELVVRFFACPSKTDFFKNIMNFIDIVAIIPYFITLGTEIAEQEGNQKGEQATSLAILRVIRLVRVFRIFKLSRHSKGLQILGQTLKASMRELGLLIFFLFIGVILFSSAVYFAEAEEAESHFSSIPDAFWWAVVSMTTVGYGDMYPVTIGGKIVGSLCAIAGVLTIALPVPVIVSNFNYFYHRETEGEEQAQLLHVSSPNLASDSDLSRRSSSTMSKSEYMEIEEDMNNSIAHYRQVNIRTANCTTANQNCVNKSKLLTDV
T3 sequence (P16389 whole entry): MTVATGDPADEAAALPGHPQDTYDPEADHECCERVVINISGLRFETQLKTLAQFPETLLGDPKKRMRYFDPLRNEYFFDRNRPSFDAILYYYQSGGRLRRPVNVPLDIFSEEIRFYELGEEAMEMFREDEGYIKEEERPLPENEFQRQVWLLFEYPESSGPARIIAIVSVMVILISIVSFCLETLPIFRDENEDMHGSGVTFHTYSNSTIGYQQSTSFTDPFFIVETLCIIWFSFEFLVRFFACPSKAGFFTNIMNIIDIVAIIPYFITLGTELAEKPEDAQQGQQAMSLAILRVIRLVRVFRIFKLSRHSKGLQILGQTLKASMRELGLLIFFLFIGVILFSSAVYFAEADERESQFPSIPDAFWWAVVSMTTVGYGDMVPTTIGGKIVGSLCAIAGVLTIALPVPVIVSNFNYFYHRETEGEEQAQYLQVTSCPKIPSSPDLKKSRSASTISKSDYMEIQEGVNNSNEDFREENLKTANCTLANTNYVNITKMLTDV

Broadly, the IC50 is the point on the concentration scale where inhibition reaches its midpoint. For the molecule `CCCC[C@H](NC(=O)[C@H](CC(=O)O)NC(=O)[C@H](CCCC)NC(=O)[C@@H](N)CO)C(=O)N[C@@H](CCCNC(=N)N)C(=O)N[C@H]1CSSC[C@@H]2NC(=O)[C@H](CCCCN)NC(=O)CNC(=O)[C@H](Cc3ccccc3)NC(=O)[C@H]([C@@H](C)CC)NC(=O)[C@H](CO)NC(=O)CNC(=O)[C@H]([C@@H](C)CC)NC(=O)[C@H](C)NC(=O)[C@H](CCCCN)NC(=O)[C@H](CC(C)C)NC(=O)[C@@H]3CSSC[C@@H](C(=O)N[C@@H](Cc4ccc(N)cc4)C(=O)N4CCC[C@H]4C(=O)N[C@@H](CCCNC(=N)N)C(N)=O)NC(=O)[C@H](CCCCN)NC(=O)[C@H](CSSC[C@H](NC(=O)[C@H](CCC(=O)O)NC(=O)[C@H](C(C)C)NC(=O)[C@H](CO)NC(=O)[C@H](C)NC(=O)[C@H](CO)NC1=O)C(=O)N[C@@H](CCCCN)C(=O)N[C@@H](CCC(N)=O)C(=O)N[C@@H](CCCCN)C(=O)N3)NC(=O)[C@H](CCCCN)NC(=O)[C@H](CCCCN)NC(=O)[C@H](CC(N)=O)NC(=O)[C@H](CCSC)NC2=O` [Compound 70] (H-S[Nle]D[Nle]RCSASVECKQKCLKAIGSIFGKCMNKKCKC[Phe(4-NH2)]PR-NH2; disulfide 6-27, 12-32, 16-34), the IC50 in experiment [1] was 0.13 nM; at Kv1.1, more than 3000 nM; at Kv1.2, 423 nM; at Kv1.3, 0.25 nM; on Kv1.6 it was more than 3000 nM; at Rat whole blood, not above 1 nM. At Kv1.1, the “Selectivity Kv1.1/Kv1.3” value is more than 12200. Further, at Kv1.6, the “Selectivity Kv1.6/Kv1.3” value is recorded as more than 12200.
As to `CCCC[C@H](NC(=O)[C@H](CC(=O)O)NC(=O)[C@H](CCCC)NC(=O)[C@@H](N)CO)C(=O)N[C@@H](CCCNC(=N)N)C(=O)N[C@H]1CSSC[C@@H]2NC(=O)[C@H](CCCCN)NC(=O)CNC(=O)[C@H](Cc3ccccc3)NC(=O)[C@H]([C@@H](C)CC)NC(=O)[C@H](CO)NC(=O)CNC(=O)[C@H]([C@@H](C)CC)NC(=O)[C@H](C)NC(=O)[C@H](CCCCN)NC(=O)[C@H](CC(C)C)NC(=O)[C@@H]3CSSC[C@@H](C(=O)N[C@@H](Cc4ccc(O)cc4)C(=O)N4CCC[C@H]4C(=O)N[C@@H](CCCNC(=N)N)C(N)=O)NC(=O)[C@H](CCCCN)NC(=O)[C@H](CSSC[C@H](NC(=O)[C@H](CCC(=O)O)NC(=O)[C@H](C(C)C)NC(=O)[C@H](CO)NC(=O)[C@H](C)NC(=O)[C@H](CO)NC1=O)C(=O)NCC(=O)N[C@@H](CCC(N)=O)C(=O)N[C@@H](CCCCN)C(=O)N3)NC(=O)[C@H](CCCCN)NC(=O)[C@H](CCCCN)NC(=O)[C@H](CC(N)=O)NC(=O)[C@H](CCSC)NC2=O` [Compound 71] (H-S[Nle]D[Nle]RCSASVECGQKCLKAIGSIFGKCMNKKCKCYPR-NH2; disulfide 6-27, 12-32, 16-34), the 50% inhibitory concentration (IC50) was 0.1 nM in experiment [1]; more than 3000 nM at Kv1.1; 373 nM at Kv1.2; 0.11 nM on Kv1.3; more than 3000 nM on Kv1.6; not above 1 nM at Rat whole blood. Also, the “Selectivity Kv1.1/Kv1.3” value on Kv1.1 is reported as more than 27700. Moreover, the “Selectivity Kv1.6/Kv1.3” value at Kv1.6 is on record as more than 27700.
Consider `CCCC[C@H](NC(=O)[C@@H](N)CO)C(=O)N[C@@H](CC(=O)O)C(=O)N[C@@H](CCC(=O)O)C(=O)N[C@@H](CCCNC(=N)N)C(=O)N[C@H]1CSSC[C@@H]2NC(=O)[C@H](CCCCN)NC(=O)CNC(=O)[C@H](Cc3ccccc3)NC(=O)[C@H]([C@@H](C)CC)NC(=O)[C@H](CO)NC(=O)CNC(=O)[C@H]([C@@H](C)CC)NC(=O)[C@H](C)NC(=O)[C@H](CCCCN)NC(=O)[C@H](CC(C)C)NC(=O)[C@@H]3CSSC[C@@H](C(=O)N[C@@H](Cc4ccc(O)cc4)C(=O)N4CCC[C@H]4C(=O)N[C@@H](CCCNC(=N)N)C(N)=O)NC(=O)[C@H](CCCCN)NC(=O)[C@H](CSSC[C@H](NC(=O)[C@H](CCC(=O)O)NC(=O)[C@H](C(C)C)NC(=O)[C@H](CO)NC(=O)[C@H](C)NC(=O)[C@H](CO)NC1=O)C(=O)N[C@@H](CCCCN)C(=O)N[C@@H](CCC(N)=O)C(=O)N[C@@H](CCCCN)C(=O)N3)NC(=O)[C@H](CCCCN)NC(=O)[C@H](CCCCN)NC(=O)[C@H](CC(N)=O)NC(=O)[C@H](CCSC)NC2=O` [Compound 76] (H-S[Nle]DERCSASVECKQKCLKAIGSIFGKCMNKKCKCYPR-NH2; disulfide 6-27, 12-32, 16-34), for which the IC50 is 0.093 nM in experiment [1]; more than 3000 nM at Kv1.1; 122 nM on Kv1.2; 0.28 nM at Kv1.3; more than 3000 nM on Kv1.6; not above 1 nM at Rat whole blood. Moreover, at Kv1.1, the “Selectivity Kv1.1/Kv1.3” value is on record as more than 10600. In addition, the “Selectivity Kv1.6/Kv1.3” value on Kv1.6 was more than 10600.
`CCCC[C@H](NC(=O)[C@@H]1CCCN1)C(=O)N[C@@H](CC(=O)O)C(=O)N[C@@H](CCCC)C(=O)N[C@@H](CCCNC(=N)N)C(=O)N[C@H]1CSSC[C@@H]2NC(=O)[C@H](CCCCN)NC(=O)CNC(=O)[C@H](Cc3ccccc3)NC(=O)[C@H]([C@@H](C)CC)NC(=O)[C@@H]3CSSC[C@@H](C(N)=O)NC(=O)[C@@H]4CCCN4C(=O)[C@H](Cc4ccc(O)cc4)NC(=O)[C@@H]4CSSC[C@H](NC(=O)[C@H](CCCCN)NC(=O)[C@H](CCC(N)=O)NC(=O)[C@H](CCCCN)NC(=O)[C@H](CSSC[C@H](NC(=O)[C@H](CCCCN)NC(=O)[C@H](CCCCN)NC(=O)[C@H](CC(N)=O)NC(=O)[C@H](CCCC)NC2=O)C(=O)N[C@@H](CCCCN)C(=O)N4)NC(=O)[C@H](CCC(=O)O)NC(=O)[C@H](C(C)C)NC(=O)[C@H](CO)NC(=O)[C@H](C)NC(=O)[C@H](CO)NC1=O)C(=O)N[C@@H](CC(C)C)C(=O)N[C@@H](CCCCN)C(=O)N[C@@H](C)C(=O)N[C@@H]([C@@H](C)CC)C(=O)NCC(=O)N3` [Compound 83] (H-P[Nle]D[Nle]RCSASVECKQKCLKAIGCIFGKC[Nle]NKKCKCYPC-NH2; disulfide 6-27, 12-32, 16-34, 22-37): the IC50 is 0.12 nM in experiment [1]; more than 3000 nM at Kv1.1; 624 nM on Kv1.2; 0.63 nM on Kv1.3; 1220 nM on Kv1.6; not above 1 nM against Rat whole blood. Also, the “Selectivity Kv1.1/Kv1.3” value on Kv1.1 was more than 4800. In addition, the “Selectivity Kv1.2/Kv1.3” value at Kv1.2 (ratio IC50[Kv1.2]/IC50[Kv1.3]) was 995. For the same molecule, the “Selectivity Kv1.6/Kv1.3” value on Kv1.6 is given as 1949.
With `CCCC[C@@H]1NC(=O)[C@@H]2CSSC[C@H](NC(=O)[C@H](CCCNC(=N)N)NC(=O)[C@H](CCCC)NC(=O)[C@H](CC(=O)O)NC(=O)[C@@H](N)CCCC)C(=O)N[C@@H](CO)C(=O)N[C@@H](C)C(=O)N[C@@H](CO)C(=O)N[C@@H](C(C)C)C(=O)N[C@@H](CCC(=O)O)C(=O)N[C@H]3CSSC[C@H](NC(=O)[C@H](CCCCN)NC(=O)[C@H](CCCCN)NC(=O)[C@H](CC(N)=O)NC1=O)C(=O)N[C@@H](CCCCN)C(=O)N[C@H](C(=O)N[C@@H](Cc1ccc(O)cc1)C(=O)N1CCC[C@H]1C(=O)N[C@@H](CCCNC(=N)N)C(=O)O)CSSC[C@H](NC(=O)[C@H](CCCCN)NC(=O)[C@H](CCC(N)=O)NC(=O)[C@H](CCCCN)NC3=O)C(=O)N[C@@H](CC(C)C)C(=O)N[C@@H](CCCCN)C(=O)N[C@@H](C)C(=O)N[C@@H]([C@@H](C)CC)C(=O)NCC(=O)N[C@@H](CO)C(=O)N[C@@H]([C@@H](C)CC)C(=O)N[C@@H](Cc1ccccc1)C(=O)NCC(=O)N[C@@H](CCCCN)C(=O)N2` [Compound 94] (H-[Nle]D[Nle]RCSASVECKQKCLKAIGSIFGKC[Nle]NKKCKCYPR-OH; disulfide 5-26, 11-31, 15-33), the IC50 in experiment [1] is 0.16 nM; at Kv1.1 it was more than 3000 nM; on Kv1.2, 1860 nM; on Kv1.3 it was 0.17 nM; on Kv1.6 it was more than 3000 nM; on Rat whole blood, not above 1 nM. The “Selectivity Kv1.1/Kv1.3” value at Kv1.1 is reported as more than 17800. Besides, on Kv1.6, the “Selectivity Kv1.6/Kv1.3” value was more than 17800.
As to `CCCC[C@H](NC(=O)[C@@H]1CCCN1)C(=O)N[C@@H](CCC(=O)O)C(=O)N[C@@H](CCCC)C(=O)N[C@@H](CCCNC(=N)N)C(=O)N[C@H]1CSSC[C@@H]2NC(=O)[C@H](CCCCN)NC(=O)CNC(=O)[C@H](Cc3ccccc3)NC(=O)[C@H]([C@@H](C)CC)NC(=O)[C@H](CO)NC(=O)CNC(=O)[C@H]([C@@H](C)CC)NC(=O)[C@H](C)NC(=O)[C@H](C)NC(=O)[C@H](CC(C)C)NC(=O)[C@@H]3CSSC[C@@H](C(=O)N[C@@H](Cc4ccc(O)cc4)C(=O)N4CCC[C@H]4C(=O)N[C@@H](CCCNC(=N)N)C(N)=O)NC(=O)[C@H](CCCCN)NC(=O)[C@H](CSSC[C@H](NC(=O)[C@H](CCC(=O)O)NC(=O)[C@H](C(C)C)NC(=O)[C@H](CO)NC(=O)[C@H](C)NC(=O)[C@H](CO)NC1=O)C(=O)N[C@@H](CCCCN)C(=O)N[C@@H](CCC(N)=O)C(=O)N[C@@H](CCCCN)C(=O)N3)NC(=O)[C@H](CCCCN)NC(=O)[C@H](CCCCN)NC(=O)[C@H](CC(N)=O)NC(=O)[C@H](CCCC)NC2=O` [Compound 98] (H-P[Nle]E[Nle]RCSASVECKQKCLAAIGSIFGKC[Nle]NKKCKCYPR-NH2; disulfide 6-27, 12-32, 16-34), the half-maximal inhibitory concentration (IC50) in experiment [1] was 0.11 nM; at Kv1.1 it was more than 3000 nM; at Kv1.2, 311 nM; at Kv1.3 it was 0.18 nM; on Kv1.6, more than 3000 nM; on Rat whole blood, not above 1 nM. Further, the “Selectivity Kv1.1/Kv1.3” value on Kv1.1 is more than 16200. Besides, the “Selectivity Kv1.6/Kv1.3” value on Kv1.6 is reported as more than 16200.
